# ChEMBL document CHEMBL3272102, “Carboxyarylindoles as nonsteroidal antiinflammatory agents” (J Med Chem, 1976)
# What was measured:
# Rattus norvegicus [1] = test: Antiinflammatory activity in Wistar rat assessed as inhibition of carrageenan-induced paw edema at 200 mg/kg, po administered 30 mins prior to 1%, sc carrageenan challenge measured after 3 hrs; format: functional
# Rattus norvegicus [2] = test: Antiinflammatory activity in po dosed Wistar rat assessed as inhibition of carrageenan-induced paw edema administered 30 mins prior to 1%, sc carrageenan challenge measured after 3 hrs; format: functional
# Rattus norvegicus [3] = test: Antiinflammatory activity in po dosed Wistar rat assessed as inhibition of carrageenan-induced paw edema administered 60 mins prior to 1%, sc carrageenan challenge measured after 3 hrs; format: functional
# Rattus norvegicus [4] = test: Antiinflammatory activity in po dosed Wistar rat assessed as inhibition of carrageenan-induced paw edema administered 120 mins prior to 1%, sc carrageenan challenge measured after 3 hrs; format: functional
# Rattus norvegicus [5] = test: Toxicity in po dosed Wistar rat; format: organism-based; conditions: in vivo
Compound,inhibition in vivo at 200 mg/kg (Rattus norvegicus [1]) [%],further results
COC1CCc2c(cc(-c3ccccc3)n2-c2ccc(O)c(C(=O)O)c2)C1 (stereo not given),40,
O=C(O)c1cc(-n2c(-c3ccccc3)cc3c2CCCC3)cc(Cl)c1O,0,
O=C(O)c1cc(-n2c(-c3ccccc3)cc3c2Cc2ccccc2-3)ccc1O,30,
COc1ccc(-n2c(-c3ccccc3)cc3c2CCCC3)cc1C(=O)O,40,
O=C(O)c1cc(-n2c(-c3ccc(F)cc3)cc3c2CCCC3)ccc1O,≥ 60,ED50 (Rattus norvegicus [2]): 88 mg/kg
O=C(O)c1cc(-n2c(-c3ccccc3)cc3c2CCCC3=O)ccc1O,0,
COc1cccc(-c2cc3c(n2-c2ccc(O)c(C(=O)O)c2)CCCC3)c1,20,
O=C(O)c1cc(-n2c(-c3ccc(Br)cc3)cc3c2CCCC3)ccc1O,40,
O=C(O)c1cc(-n2c(-c3ccc(O)cc3)cc3c2CCCC3)ccc1O,20,
COC(=O)c1cc(-n2c(-c3ccccc3)cc3c2CCCC3)ccc1SC(=O)N(C)C,0,
O=C(O)c1cc(-n2c(-c3ccccc3)cc3c2CCCC3)ccc1O,≥ 60,ED50 (Rattus norvegicus [2]): 87 mg/kg
CCNC(=O)c1cc(-n2c(-c3ccccc3)cc3c2CCc2ccccc2-3)ccc1O,0,
O=C(O)c1cc(-n2c(-c3ccc([N+](=O)[O-])cc3)cc3c2CCCC3)ccc1O,30,
Nc1ccc(-n2c(-c3ccccc3)cc3c2CCCC3)cc1C(=O)O,40,
O=C(O)c1cc(-n2c(-c3ccccc3)cc3c2CCCC3)c(C(F)(F)F)cc1O,0,
O=C(O)c1cc(-n2c(-c3ccccc3)cc3c4ccccc4ccc32)ccc1O,≥ 60,ED50 (Rattus norvegicus [2]): 105 mg/kg; ED50 (Rattus norvegicus [3]): 69 mg/kg
O=C(O)c1cc(-n2c(-c3ccccc3)cc3c2CCCC3)ccc1S,50,
COC(=O)c1cc(-n2c(-c3ccccc3)cc3c2CCCC3)ccc1OC(=S)N(C)C,0,
O=C(O)c1cc(-n2c(-c3ccccc3)cc3ccccc32)ccc1O,≥ 60,
CC(=O)Oc1ccc(-n2c(-c3ccccc3)cc3c2CCCC3)cc1C(=O)O,50,
CC(=O)Nc1cc(-n2c(-c3ccccc3)cc3c2CCCC3)cc(C(=O)O)c1O,0,
O=C(O)c1cc(-n2c(-c3ccc(-c4ccccc4)cc3)cc3c2CCCC3)ccc1O,50,ED50 (Rattus norvegicus [2]): 162 mg/kg
O=C(O)c1cc(-n2c(-c3ccccc3)cc3c2CCc2ccccc2-3)ccc1O [FENDOSAL],≥ 60,ED50 (Rattus norvegicus [2]): 125 mg/kg; ED50 (Rattus norvegicus [4]): 66 mg/kg
O=C(O)c1cc(-n2c(-c3ccccc3)cc3c2CCc2cc(Cl)ccc2-3)ccc1O,50,
CC1CCc2c(cc(-c3ccccc3)n2-c2ccc(O)c(C(=O)O)c2)C1 (stereo not given),40,
CC(=O)Oc1ccc(-n2c(-c3ccccc3)cc3c2CCc2ccccc2-3)cc1C(=O)O,50,ED50 (Rattus norvegicus [4]): 75 mg/kg

Compound,inhibition in vivo at 200 mg/kg (Rattus norvegicus [1]) [%],further results
CC(=O)Nc1ccc(-n2c(-c3ccccc3)cc3c2CCCC3)cc1C(=O)O,30,
CC(=O)Oc1ccccc1C(=O)O [ASPIRIN],≥ 60,ED50 (Rattus norvegicus [2]): 140 mg/kg
O=C(O)c1cc(-n2c(-c3ccc(Cl)c(Cl)c3)cc3c2CCCC3)ccc1O,0,
O=C(O)c1cc(-n2c(-c3ccccc3)cc3c2CCCC3)cc(Br)c1O,0,
COC(=O)c1cc(-n2c(-c3ccccc3)cc3c2CCCC3)ccc1O,0,
O=C(O)c1cc(-n2c3c(c(-c4ccccc4)c2-c2ccccc2)CCCC3)ccc1O,30,
O=C(O)c1cc(-n2c(-c3cccs3)cc3c2CCCC3)ccc1O,30,
O=C(O)c1cc(-n2c(-c3ccccc3)cc3c2CCCCC3)ccc1O,50,Activity (Rattus norvegicus [5]): Toxic
CC(C)(C)c1cc2c(n1-c1ccc(O)c(C(=O)O)c1)CCc1ccccc1-2,40,
COc1ccc(-c2cc3c(n2-c2ccc(O)c(C(=O)O)c2)CCCC3)cc1,50,ED50 (Rattus norvegicus [2]): 173 mg/kg
Cc1ccc(-c2cc3c(n2-c2ccc(O)c(C(=O)O)c2)CCCC3)cc1,30,
CC(=O)c1c2c(n(-c3ccc(O)c(C(=O)O)c3)c1-c1ccccc1)CCc1ccccc1-2,0,
CCOC(=O)c1cc(-n2c(-c3ccccc3)cc3c2CCc2ccccc2-3)ccc1O,0,
O=C(O)c1cc(-n2c(-c3ccc(Cl)cc3)cc3c2CCCC3)ccc1O,40,
COc1ccc2c(c1)CCc1c-2cc(-c2ccccc2)n1-c1ccc(O)c(C(=O)O)c1,50,ED50 (Rattus norvegicus [3]): 164 mg/kg
O=C(O)c1cc(-n2c(-c3ccccc3)cc3c2CCC3)ccc1O,40,Activity (Rattus norvegicus [5]): Toxic
O=C(O)c1ccc(-n2c(-c3ccccc3)cc3c2CCCC3)cc1O,0,
O=C(O)c1cc(-n2c(-c3ccccc3)cc3c2-c2ccccc2CC3)ccc1O,0,
COC(=O)c1cc(-n2c(-c3ccccc3)cc3c2CCc2ccccc2-3)ccc1O,30,
O=C(O)c1cc(-n2c(-c3ccccc3)cc3c2CCCC3)ccc1Cl,40,
COc1ccccc1-c1cc2c(n1-c1ccc(O)c(C(=O)O)c1)CCCC2,50,
O=C(O)c1cc(-n2c(-c3cccc(C(F)(F)F)c3)cc3c2CCCC3)ccc1O,20,
N#Cc1ccc(-c2cc3c(n2-c2ccc(O)c(C(=O)O)c2)CCCC3)cc1,0,
O=C(O)c1cccc(-n2c(-c3ccccc3)cc3c2CCCC3)c1,20,
CC(C)(C)C1CCc2c(cc(-c3ccccc3)n2-c2ccc(O)c(C(=O)O)c2)C1 (stereo not given),0,
CC(C)(C)c1ccc2c(c1)cc(-c1ccccc1)n2-c1ccc(O)c(C(=O)O)c1,0,
